Test results taken from US20160215305A1, “Process of Fermenting A Lignocellulosic Biomass” (priority 2015, published 2016).

Key:
S. cerevisiae [1] = assay: Fermentation of glucose solution with model inhibitors (cinnamaldehyde, vanillin), with or without cysteine or glycine detoxification; format: cell-based, Saccharomyces cerevisiae; details: for detoxification of cinnamaldehyde in glucose solution (fermentation): 2.5 mM cinnamaldehyde
Method: (§1) Batch fermentation was carried out in 125 mL serum bottles containing 50 mL broths (untreated or detoxified hydrolysates, untreated or detoxified cinnamaldehyde sugar solution) without any additional nutrient supplement. All the fermentation broths were adjusted to pH 6 with NaOH or H2SO4 and sterilized by passing 0.2 μm sterile filters. After inoculation, the serum bottle was sealed with rubber stopper and aluminum seal, and equipped with cannulas for CO2 release. All fermentation experiments were incubated at 30° C., spun at 150 rpm in a shaker (E24, New Brunswick Scientific). Aliquots of samples were withdrawn at 0, 1, 3, 6, 9, 12, 24, 36 and 48 hours for the time course analysis of both starting material and products. Fermentation was carried out in duplicate. The volumetric ethanol productivity and initial consumption rate of glucose (RG) and mannose (RM) was calculated based on the sugar consumed in the first 6 h of fermentation as described previously (Cao, D. X., Tu, M. B., Xie, R., Li, J., Wu, Y. N., Adhikari, S. 2014. Inhibitory Activity of Carbonyl Compounds on Alcoholic Fermentation by Saccharomyces cerevisiae. Journal of Agricultural and Food Chemistry, 62(4), 918-926).
Preparation of the lignocellulosic biomass and the treatment thereof was performed as described in Example 1. After detoxification, the detoxified hydrolysates were cooled to room temperature and then readjusted to pH 6.0 if needed. Similarly, for the model compound (cinnamaldehyde) detoxification, glucose (˜20 g/L) was mixed with 2.5 mM cinnamaldehyde, and then treated with 5 mM cysteine or glycine at 60° C. for 2 hours prior to fermentation.
To ascertain the potential reaction mechanism in amino acids detoxification of biomass hydrolysates, cinnamaldehyde was detoxified in glucose solution with cysteine and glycine.

S. cerevisiae [2] = assay: Batch fermentation of amino acid detoxified loblolly pine hydrolysates by Baker yeast; format: cell-based, Saccharomyces cerevisiae; details: for CEtOH, ethanol final concentration at 48 h / QEtOH, volumetric ethanol productivity in the first 6 h / RG, glucose consumption rate in the first 6 h / RM, mannose consumption rate in the first 6 h / YEtOH, ethanol yield from total glucose and mannose at 48 h: hydrolysates detoxified with amino acid 0.2% w/v
Source text: Loblolly pine (Pinus taeda) wood chips (1.0×1.0 cm, L×W) were collected by Forest Products Laboratory at Auburn University, located in Auburn, Ala. Dilute acid pretreatment was used to produce biomass hydrolysates in a 4.0 L Parr batch reactor (Parr Instrument Co., Moline, Ill.) as previously described (Lai, C. H., Tu, M. B., Li, M., Yu, S. Y. 2014. Remarkable solvent and extractable lignin effects on enzymatic digestibility of organosolv pretreated hardwood. Bioresource Technology, 156, 92-98). Briefly, wood chips (400 grams, dry weight) were soaked in 1% (w/w) sulfuric acid overnight (7:1 liquor/solid ratio) prior to the pretreatment, and then loaded into a reactor and treated at 170° C. for 60 minutes.
To achieve higher ethanol titer in fermentation, loblolly pine hydrolysates were concentrated to approximately one-third of its original volume using a rotary evaporator (IKA RV10 basic) at 40° C. and 60 rotations per minute (rpm). The hydrolysates were first adjusted to pH 4.0 before evaporation. After the concentration, the sugar contents of the hydrolysates were analyzed by HPLC.
[…] The detoxification experiments were performed in a 250 mL flask and placed in a temperature-controlled water batch.
Baker yeast (Fleischmann's), S. cerevisiae, was used for all the fermentation experiments in this study. The yeast was maintained on YDP medium containing (g/L): 20 glucose, 20 peptone, 10 yeast extract and 20 agar. Isolated colony was grown in YDP liquid medium overnight and harvested as fermentation inoculum. The yeast concentration was measured using an UV-vis spectrophotometer. Inoculum of 2.0 g/L was used for all fermentation experiments.
as §1
Ethanol, acetic acid, levulinic acid, formic acid, furfural and HMF were analyzed using an Aminex HPX-87H column (300×7.8 mm) with a refractive index detector. The elution conditions were column temperature of 45° C. and flow rate of 0.6 ml/min with 5.0 mM H2SO4 as the mobile phase in a 60 min isocratic run.

S. cerevisiae [3] = details: cited from earlier work
[4] = glucose ~20 g/L, 5 mM amino acid, 60° C., 2 hours
[5] = detoxification at 80° C., pH 6.0, 2 hours
[6] = pH 6.0, 60° C., 2 hours, listed as cysteine
[7] = pH 6.0, 60° C., 2 hours detoxification
[8] = detoxification at 50° C., pH 6.0, 2 hours
[9] = detoxification at pH 8.0, 60° C., 2 hours
[10] = pH 6.0, 60° C., 2 hours, listed as glycine

N[C@@H](CS)C(=O)O [Cysteine, cysteine]
detoxification of cinnamaldehyde in glucose solution (fermentation) (S. cerevisiae [1]; [4]): detoxified cinnamaldehyde very effectively | increase of volumetric ethanol productivity when pH was increased from 2 and 4 to 6 (S. cerevisiae [2]; 60° C., 2 hours): 92% | final ethanol yield (S. cerevisiae [2]; detoxification at 20, 40, 60 and 80° C. (approximately the same), pH 6.0): ~0.42 g/g | final ethanol concentration (S. cerevisiae [2]; detoxification at 20, 40, 60 and 80° C. (the same), pH 6.0): about 23.34 g/L | volumetric ethanol productivity (S. cerevisiae [2]; detoxification at 20° C., pH 6.0, 2 hours): 0.83 g/L/h | volumetric ethanol productivity (S. cerevisiae [2]; detoxification at 40° C., pH 6.0, 2 hours): 1.19 g/L/h | volumetric ethanol productivity (S. cerevisiae [2]; [5]): 1.90 g/L/h | final ethanol concentration (S. cerevisiae [2]; detoxification at pH 2.0, 4.0 and 6.0 (the same), 60° C.): 23.56 g/L | volumetric ethanol productivity (S. cerevisiae [2]; detoxification at pH 2 and 4, 60° C., 2 hours): 0.92 g/L/h | CEtOH, ethanol final concentration at 48 h (S. cerevisiae [2]; pH 6.0, 60° C., 2 hours): 23.14 ± 0.10 g/L | QEtOH, volumetric ethanol productivity in the first 6 h (S. cerevisiae [2]; pH 6.0, 60° C., 2 hours): 1.77 ± 0.03 g/L/h | RG, glucose consumption rate in the first 6 h (S. cerevisiae [2]; pH 6.0, 60° C., 2 hours): 2.10 ± 0.04 g/L/h | RM, mannose consumption rate in the first 6 h (S. cerevisiae [2]; pH 6.0, 60° C., 2 hours): 2.16 ± 0.12 g/L/h | YEtOH, ethanol yield from total glucose and mannose at 48 h (S. cerevisiae [2]; pH 6.0, 60° C., 2 hours): 0.42 ± 0.00 g/g | CEtOH, ethanol final concentration at 48 h (S. cerevisiae [2]; [6]): 23.14 g/L | QEtOH, volumetric ethanol productivity in the first 6 h (S. cerevisiae [2]; [6]): 1.77 g/L/h | RG, glucose consumption rate in the first 6 h (S. cerevisiae [2]; [6]): 2.10 g/L/h | RM, mannose consumption rate in the first 6 h (S. cerevisiae [2]; [6]): 2.16 g/L/h | YEtOH, ethanol yield from total glucose and mannose at 48 h (S. cerevisiae [2]; [6]): 0.42 g/g | ethanol productivity higher than positive sugar control (1.39 g/L/h) (S. cerevisiae [2]; [7]): 27% | improvement of mannose consumption rate compared to the positive sugar control (S. cerevisiae [2]; [7]): 43% | increase of volumetric ethanol productivity when temperature was changed from 20 to 40, 60, and 80° C. (S. cerevisiae [2]; pH 6.0, 2 hours): 43-130%

NCC(=O)O [Glycine, glycine]
detoxification of cinnamaldehyde in glucose solution (fermentation) (S. cerevisiae [1]; glucose solution, detoxified at 80° C.): became fermentable | detoxification of cinnamaldehyde in glucose solution (fermentation) (S. cerevisiae [1]; [4]): did not detoxify the cinnamaldehyde | ethanol productivity (S. cerevisiae [2]; [8]): 0.24 g/L/h | final ethanol concentration (S. cerevisiae [2]; [8]): 1.87 g/L | final ethanol concentration (S. cerevisiae [2]; detoxification at 70 and 80° C., pH 6.0, 2 hours): 23.00 g/L | ethanol productivity (S. cerevisiae [2]; detoxification at 70° C., pH 6.0, 2 hours): 1.08 g/L/h | volumetric ethanol productivity (S. cerevisiae [2]; [5]): 1.33 g/L/h | fermentability of detoxified biomass hydrolysates (S. cerevisiae [2]; detoxification at pH 2.0 and 4.0, 60° C., 2 hours): not fermentable | fermentability of detoxified hydrolysates (S. cerevisiae [2]; detoxification at pH 2.0 and 4.0, 80° C.): still not fermentable | ethanol productivity (S. cerevisiae [2]; [9]): 0.87 g/L/h | final ethanol concentration (S. cerevisiae [2]; [9]): 23.77 g/L | CEtOH, ethanol final concentration at 48 h (S. cerevisiae [2]; pH 6.0, 60° C., 2 hours): 8.58 ± 0.27 g/L | QEtOH, volumetric ethanol productivity in the first 6 h (S. cerevisiae [2]; pH 6.0, 60° C., 2 hours): 0.42 ± 0.01 g/L/h | RG, glucose consumption rate in the first 6 h (S. cerevisiae [2]; pH 6.0, 60° C., 2 hours): 0.39 ± 0.01 g/L/h | RM, mannose consumption rate in the first 6 h (S. cerevisiae [2]; pH 6.0, 60° C., 2 hours): 0.50 ± 0.05 g/L/h | YEtOH, ethanol yield from total glucose and mannose at 48 h (S. cerevisiae [2]; pH 6.0, 60° C., 2 hours): 0.16 ± 0.01 g/g | CEtOH, ethanol final concentration at 48 h (S. cerevisiae [2]; [10]): 8.58 g/L | QEtOH, volumetric ethanol productivity in the first 6 h (S. cerevisiae [2]; [10]): 0.42 g/L/h | YEtOH, ethanol yield from total glucose and mannose at 48 h (S. cerevisiae [2]; [10]): 0.16 g/g

O=Cc1ccc(CO)o1 [HMF, hydroxymethylfurfural]
effect on ethanol production by S. cerevisiae (S. cerevisiae [3]; addition of 25 mM (3.16 g/L)): did not affect the ethanol production

CC(=O)O [acetic acid]
increase of final ethanol yield in S. cerevisiae fermentation (S. cerevisiae [3]; 9 g/L at pH 5): 16%

O=CC=Cc1ccccc1 [cinnamaldehyde, reference compound]
inhibition of glucose fermentation (S. cerevisiae [1]; 2.5 mM inhibitor in glucose solution, preliminary results): inhibited glucose fermentation significantly

COc1cc(C=O)ccc1O [vanillin, reference compound]
inhibition of glucose fermentation (final ethanol concentration and yield) (S. cerevisiae [1]; 10 mM inhibitor in glucose solution, preliminary results): did not inhibit the final ethanol concentration and yield
